Consider 2 compounds from patent publication US4992581A, “Novel methods of manufacturing thromboxane A2 antagonists” (National Research Development Corporation, priority 1988, dated 1991).

Structures are written as SMILES.

Usually IC50 stands for the concentration that gives 50% inhibition.

One assay concerns washed human platelets. The experiment in a line: Analysis of partial agonism (human washed platelets). It counts as cell-based. The settings on record: 5 and 10 min. incubation. On the procedure:
Sixty ml of blood were drawn into 1/10 volume of CCD (100 mM Na Citrate and 136 mM glucose, pH 6.5 with HCl) and PRP prepared as described above. PRP was placed on ice for 15 min. One half of the volume of CCD was added and recentrifuged. The platelet pellet was gently resuspended in 1/2 the original volume of PRP in a 0° C. modified Tangen-Hepes-BSA buffer (145 mM NaCl, 5 mM KCl, 0.05 mM CaCl2, 0.1 mM MgCl2, 11 mM glucose, 15 mM Hepes, 1 mg/ml bovine serum albumin, pH adjusted to 7.4 with NaOH). The resuspended platelets were incubated undisturbed at 37° C. for 30 min. After incubation a platelet count was determined and adjusted to 3×10^8 cells/ml with the Tangen-Hepes-BSA buffer.
425 μl of the washed human platelet suspension was incubated in the aggregometer in the presence of 16 mM CaCl2 (50 μl) and SC-46985 for 5 and 10 min. […] (In a study similar to (a) above, aliquots of human washed platelets were incubated with various concentrations of SC-46985 and U-46619 to determine dose-related inhibition of aggregation).

For assay [1], the system named is U-46619-induced platelet aggregation (rat platelet rich plasma). Briefly: Inhibition of U-46619-induced platelet aggregation in vitro in rat platelet rich plasma. It counts as cell-based. The conditions noted are these: rat PRP. The protocol:
Platelet rich plasma (PRP) was prepared from heparanized whole blood (5 units/ml) drawn from the abdominal aorta of ether anesthetized rats. PRP was prepared by centrifugation (Sorvall RC2B, DuPont, Wilmington, Del.) of the whole blood at 150×g for 10 min. Platelet poor plasma (PPP) was prepared by centrifugation at 1200×g for 20 min. Aliquots of PRP and PPP were used to standardize the aggregometer (Payton, Buffalo, N.Y., model 300B) with the recorder (Riken Denshi 2 channel recorder, Payton, model SP-H5P) for measurement of minimum and maximum light transmittance, respectively.
Platelet aggregation was measured as an increase in light transmittance. PRP (390 μl aliquot 5 μl compound vehicle) was preincubated for 1 min. at 37° C., with stirring at 900 rpm in the aggregometer. […] Amount of aggregation was measured by grids on the strip chart.
Compounds were dissolved in either ethanol (ETOH) or Na2 CO3 (0.1 M) and preincubated at the desired concentration in PRP for 1 min. at 37° C. with stirring. […] Dose response curves were generated and IC50 's calculated by linear regression.

Consider `CC(=NNC(=S)Nc1ccccc1)[C@H]1[C@@H]2CC[C@@H](C2)[C@@H]1C/C=C\CCCC(=O)O` [SC-46985], for which the partial agonist activity entry in the assay on washed human platelets is recorded as “lack of partial agonist activity”. The “shape change or aggregation” value in the assay with washed human platelets (no U-46619) is recorded as “no evidence of shape change or aggregation”.

For the compound `CC(=NNC(=S)Nc1ccccc1)[C@@H]1[C@H]2CC[C@H](C2)[C@H]1C/C=C\CCCC(=O)O` (relative stereo) [SC-44161, (±)7-[3α[[(Phenylamino)thioxomethyl]hydrazono]ethyl]1α,4α-bicyclo[2.2.1]hept-2β-yl]-5Z-heptenoic acid], the “fold more potent in aqueous solution than in ethanol” value in assay [1] (Na Carbonate vs ETOH vehicle) is on record as 5-10 fold. Moreover, the IC50 in assay [1] (Rattus norvegicus, Platelet, vehicle ETOH) is 260 nM.
